# From paper PMC3906007, “Discovery of a Small Molecule Agonist of Phosphatidylinositol 3-Kinase p110α That Reactivates Latent HIV-1” (PLoS ONE, 2014)
# What was measured:
# [1] = Cytotoxicity (MTT or CellTiter 96), Jurkat; format: cell-based; settings: human, Jurkat cells; 24 hour incubation; mean ± SD, 3 replicates
# Method: (§1) Following a 24 hour incubation period, cell viability was measured using either the MTT (Roche Applied Science, Indianapolis, IN) or CellTiter 96 proliferation (Promega, WI) assay.
# [2] = Cytotoxicity (MTT or CellTiter 96), HeLa; format: cell-based; settings: human, HeLa cells; 24 hour incubation; mean ± SD, 3 replicates
# Method: as §1
# [3] = Cytotoxicity (MTT or CellTiter 96), 293T; format: cell-based; settings: human, 293T cells; 24 hour incubation; mean ± SD, 3 replicates
# Method: as §1
# [4] = Cytotoxicity (MTT or CellTiter 96), CD8+-depleted MNC; format: cell-based; settings: human, CD8+-depleted mononuclear cells (MNC) from whole blood; 24 hour incubation; mean of 2 replicates
# Method: as §1
# (§2) CD8+T-cells were depleted from whole blood using RosetteSep Human CD8 Depletion Cocktail (StemCell Technologies, Vancouver, BC) according to manufacturer's instructions. 2×10^6 CD4^+ MNC cells were seeded in triplicate per treatment in 48-well plates and allowed to rest overnight. All wells were maintained in 81 nM efavirenz. […] Activation controls were treated with CD3/CD28 Dynabeads (Life Technologies, Grand Island, NY). After 7 days of incubation, supernatants from triplicate wells were pooled, centrifuged (500 g×5 min), and stored at −80°C. HIV-1 RNA levels in supernatants were determined using the COBAS® AmpliPrep/COBAS® TaqMan® HIV-1 Test, v2.0 (Roche, Indianapolis, IN).
# [5] = system: latent HIV-1 in CD8+-depleted MNC; format: cell-based; settings: across all four donors; 0.5 or 2 µM
# Text: Healthy HIV-1 uninfected blood donors and HIV-1-infected donors on suppressive cART with plasma HIV-1 RNA less than 50 copies/mL for >2 year provided written informed consent and underwent a large volume phlebotomy (100–200 mLs). The protocol for blood donation was approved by the Institutional Review Board of the University of Pittsburgh (IRB #PRO10070203).
# as §2, with “overnight.” for “overnight. All wells were maintained in 81 nM efavirenz.”
# PI3K p110δ RNA = test: PI3K isoform RNA transcript levels in J89GFP cells, p110δ; format: cell-based; settings: 5 µM
# [6] = system: HIV-1 RNA expression in resting CD4+ T cells; settings: single 400 mg dose; 8 HIV-infected patients on suppressive cART; cited from earlier work
# [7] = design: method as in PMID 20936324; settings: phase II clinical trial, ovarian cancer; cited from earlier work
# [8] = system: latent HIV-1 in J89GFP cells; test: Latent HIV-1 reactivation in J89GFP cells (EGFP positive cells, flow cytometry); format: cell-based; settings: J89GFP
# Method: Three different cell lines of HIV-1 latency were used in this study. These included J89GFP, U1 and ACH-2 cells. The J89GFP cells were a kind gift from Dr. David Levy. The ACH-2 and U1 cells were obtained through the AIDS Research and Reference Reagent Program, Division of AIDS, NIAID, NIH: Dr. Thomas Folks contributor [19]–[21]. Reactivation of latent HIV-1 in the J89GFP cells was measured by quantifying the percentage of EGFP positive cells using a BD FACScan flow cytometer with BD FACSDiva software (BD Biosciences, CA), as described previously. Reactivation of latent HIV-1 in the ACH-2 and U 1 cells was assessed by quantitative analysis of initiated and elongated HIV-1 transcripts, as described previously. All 3 cell lines were maintained in RMPI 1640 medium supplemented with 10% FBS, 0.3 mg/mL L-glutamine, 100 U/mL penicillin, and 100 µg/mL streptomycin at 37°C in humidified air with 5% CO2.
# To identify novel activators of latent HIV-1 expression, we screened 640 pure natural products from the TimTec Natural Compound Library at a concentration of 10 ng/mL for 24 hrs in a Jurkat cell (J89GFP) model of latency for their cytotoxicity and ability to reactivate HIV-1 expression. J89GFP cells contain a stably integrated, full-length HIV-1 provirus with an enhanced GFP (EGFP) reporter incorporated into the viral genome. The viral genome in these cells is transcriptionally silent. However, upon stimulation viral transcription is activated and viral expression can be measured by EGFP production. […].
# T cell = system: T cell; design: method as in PMID 22732922; settings: cited from earlier work
smiles,measurement,setting,value
"O=C(CCCCCCC(=O)Nc1ccccc1)NO [SAHA, vorinostat, reference compound]",CC50 at 24 h,[1],10 ± 0.1 µM
same,CC50 at 24 h,[2],11.3 ± 0.3 µM
same,CC50 at 24 h,[3],14.1 ± 0.2 µM
same,CC50 at 24 h,[4],0.7 µM
same,Capacity to increase HIV-1 expression in the CD8+-depleted MNC,[5],very limited capacity
same,Effect on PI3K p110δ RNA transcript levels / gene expression,PI3K p110δ RNA,significantly up-regulate
same,HIV-1 RNA expression in resting CD4+ T cells,[6],induced an increase in HIV-1 RNA expression
CCC/C=C/C=C/C(=O)O[C@H]1/C(=C/C(=O)OC)C[C@H]2C[C@H]([C@@H](C)O)OC(=O)C[C@H](O)C[C@@H]3C[C@H](OC(C)=O)C(C)(C)[C@](O)(C[C@@H]4C/C(=C/C(=O)OC)C[C@H](/C=C/C(C)(C)[C@]1(O)O2)O4)O3 [bryostatin],Adverse event in study participants,[7],severe myalgia in all study participants
"CC(=O)O[C@@]12C[C@@H](C)[C@@]3(O)[C@@H](C=C(CO)C[C@]4(O)C(=O)C(C)=C[C@@H]34)[C@@H]1C2(C)C [prostratin, reference compound]",Latent HIV-1 reactivation activity in presence of PI3K inhibitor wortmannin,[8]; 20 nM wortmannin,remained unaffected
same,Latent HIV-1 reactivation activity in presence of Akt Inhibitor IV,[8]; 500 nM Akt Inhibitor IV,remained unaffected
same,Latent HIV-1 reactivation activity in presence of PKC inhibitor Gö6983,[8]; 500 nM Go6983,attenuated
same,Latent HIV-1 reactivation activity in presence of JNK inhibitor SP600125,[8]; 1 µM SP00125,remained unaffected
same,Latent HIV-1 reactivation activity in presence of NFAT/calcineurin inhibitor cyclosporin A,[8]; 1 µM cyclosporin A,remained unaffected
same,Global T cell activation,T cell,induces global T cell activation
